Some test systems named below: HT29 colon; NCI-H226 lung; NCI-H522 lung; SNB-75 CNS; HCC-2998 colon; U251 CNS; M14 melanoma; OVCAR-3 ovarian; IGROV1 ovarian; UO-31 renal.
Common to all, as to assay: inhibition of tumour cell growth, NCI panel, 48 h

“And” between values parts separate entries of the source, which are not always exact repeats. Equal values may be shown once.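 Dose response: 5 concentrations. Exposure: 48 h. Format: 96-well plates. Endpoint: linear interpolation; highest concentration if not reached. Here, GI50 denotes the concentration required for 50% inhibition of growth. TGI is the concentration that stops growth completely.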

In the case of `CCC(CC)c1cc(N[C@H]2CC[C@H](N)C2)n2nccc2n1`, the GI50 was 0.735 µM with HT29 colon; 0.969 µM in the test with NCI-H226 lung; 0.281 µM with NCI-H522 lung; 1.28 µM in the test with SNB-75 CNS; 1.52 µM with HCC-2998 colon; 0.858 µM in the test on U251 CNS. In addition, the GI50 is 1.74 µM with M14 melanoma, 1.01 µM in the test with OVCAR-3 ovarian, 2.38 µM in the test on IGROV1 ovarian and 2.08 µM with UO-31 renal. The TGI with HT29 colon is more than 100 µM; in the test with NCI-H226 lung, 48.7 µM; with NCI-H522 lung, 1.55 µM; in the test on SNB-75 CNS, 3.32 µM; with HCC-2998 colon it was 12 µM; in the test with U251 CNS, more than 100 µM. The TGI in the test with M14 melanoma was 5.4 µM; in the test on OVCAR-3 ovarian, more than 100 µM; in the test with IGROV1 ovarian, more than 100 µM; in the test with UO-31 renal it was 5.69 µM.
`CCOC(=O)Nc1ccc2nc(N3CCCCCC3)sc2c1`: the GI50 in the test on HT29 colon is 0.44 µM; in the test on NCI-H226 lung, 12.3 µM; in the test with NCI-H522 lung it was 1.83 µM; with SNB-75 CNS, 2.07 µM; with HCC-2998 colon it was 7.59 µM; with U251 CNS, 1.09 µM. In addition, the GI50 in the test on M14 melanoma was 0.719 µM; in the test on OVCAR-3 ovarian it was 1.66 µM; with IGROV1 ovarian it was 4.36 µM; with UO-31 renal it was 6.17 µM. Moreover, the TGI was 9.87 µM in the test on HT29 colon; more than 68 µM with NCI-H226 lung; 13.2 µM in the test on NCI-H522 lung; more than 31.4 µM in the test with SNB-75 CNS; 48 µM with HCC-2998 colon; more than 100 µM with U251 CNS. In addition, the TGI is more than 70.4 µM in the test on M14 melanoma, 10.7 µM with OVCAR-3 ovarian, more than 100 µM in the test with IGROV1 ovarian and 75.1 µM in the test on UO-31 renal.
On to `O=C(NCCCl)NCCN1c2nc3ccccc3cc2Sc2cc3ccccc3nc21`, for which the GI50 with HT29 colon was 1.11 µM; with NCI-H226 lung, 1.82 µM; with NCI-H522 lung, 4.23 µM; in the test with SNB-75 CNS, 0.558 µM; in the test with HCC-2998 colon it was 1.68 µM; in the test with U251 CNS, 1.93 µM. The GI50 in the test on M14 melanoma is 1.77 µM; in the test on OVCAR-3 ovarian, 1.45 µM; in the test with IGROV1 ovarian it was 0.71 µM; in the test with UO-31 renal, 2.64 µM. In addition, the TGI is 8.89 µM with HT29 colon; 19 µM in the test on NCI-H226 lung; more than 53.3 µM with NCI-H522 lung; 5.47 µM in the test with SNB-75 CNS; 5.09 µM in the test on HCC-2998 colon; 12.3 µM with U251 CNS. Further, the TGI with M14 melanoma is 6.73 µM; in the test on OVCAR-3 ovarian, 16.1 µM; in the test on IGROV1 ovarian, 25.3 µM; in the test with UO-31 renal, more than 52.1 µM.
On to `C=C1C[C@@H](O)[C@@H](Br)C(C)(C)[C@]12CCC(C)(Br)C(Cl)C2` (some centres undefined), for which the GI50 with HT29 colon was 1.95 µM; in the test on NCI-H226 lung it was 15.6 µM; in the test on NCI-H522 lung it was 17.4 µM; in the test on SNB-75 CNS it was 18.5 µM; with HCC-2998 colon, 17.1 µM; in the test with U251 CNS it was 17.7 µM. For the same compound, the GI50 is 17.9 µM with M14 melanoma, 17.4 µM with OVCAR-3 ovarian, 18 µM in the test with IGROV1 ovarian and 25.4 µM in the test on UO-31 renal. Moreover, the TGI in the test with HT29 colon was 50 µM and 16.4 µM; with NCI-H226 lung, 50 µM and 29.9 µM; with NCI-H522 lung it was > 50 µM and 32.1 µM; in the test with SNB-75 CNS it was > 50 µM and 34.6 µM; in the test on HCC-2998 colon, > 50 µM and 30.8 µM; in the test on U251 CNS, > 50 µM and 31.5 µM. Also, the TGI with M14 melanoma is > 50 µM and 34.6 µM; with OVCAR-3 ovarian it was > 50 µM and 33.7 µM; in the test on IGROV1 ovarian, > 50 µM and 36.1 µM; in the test with UO-31 renal, > 50 µM and 43.7 µM.
Regarding `Nc1nc(=S)c2ncn(C3OC(CO)C(O)C3O)c2[nH]1` (centres undefined), the GI50 in the test on HT29 colon is 0.981 µM; in the test on NCI-H226 lung it was 3.5 µM; in the test with NCI-H522 lung, 1.8 µM; in the test on SNB-75 CNS, 0.688 µM; with HCC-2998 colon, 0.7 µM; with U251 CNS it was 6.5 µM. Further, the GI50 was 0.304 µM with M14 melanoma, 0.851 µM in the test on OVCAR-3 ovarian, 3.77 µM with IGROV1 ovarian and 0.77 µM in the test on UO-31 renal. Further, the TGI in the test on HT29 colon is more than 100 µM; with NCI-H226 lung, more than 100 µM; with NCI-H522 lung, more than 100 µM; with SNB-75 CNS it was more than 100 µM; in the test on HCC-2998 colon, 5 µM; with U251 CNS it was more than 100 µM. The TGI is 3.13 µM with M14 melanoma, more than 35.5 µM in the test with IGROV1 ovarian and more than 100 µM with UO-31 renal.
As to `COC(=O)C(=O)C(C#N)c1cccc(Cl)c1` (centres undefined), the TGI with HT29 colon, with NCI-H226 lung, with NCI-H522 lung, in the test on SNB-75 CNS, in the test on HCC-2998 colon and with U251 CNS was more than 100 µM in each case. The TGI with M14 melanoma, with OVCAR-3 ovarian, in the test with IGROV1 ovarian and with UO-31 renal was more than 100 µM in each case.
As to `CCCCCCCCCCCCNC(=O)N[C@H](C(=O)N[C@H]1/C=C/CCNC(=O)/C=C/[C@H](C)NC1=O)C(C)C`, the GI50 with HT29 colon is 0.0216 µM; in the test with NCI-H226 lung, 0.0582 µM; in the test with NCI-H522 lung, 0.0244 µM; in the test on SNB-75 CNS, 0.0345 µM; in the test on HCC-2998 colon, 0.0239 µM; in the test with U251 CNS, 0.0412 µM. The GI50 in the test on M14 melanoma was 0.221 µM; in the test with OVCAR-3 ovarian, 0.0566 µM; with IGROV1 ovarian, 0.06 µM; in the test on UO-31 renal, 32.2 µM. For the same compound, the TGI was found to be 0.331 µM in the test on HT29 colon; 0.167 µM with NCI-H226 lung; 0.0647 µM in the test with NCI-H522 lung; 0.155 µM with SNB-75 CNS; 0.0562 µM in the test with HCC-2998 colon; 0.209 µM in the test on U251 CNS. Moreover, the TGI in the test with M14 melanoma was 4.6 µM; with OVCAR-3 ovarian, 0.935 µM; with IGROV1 ovarian it was 2.24 µM; with UO-31 renal, more than 100 µM.
`CCC1(OC(=O)CNC)C(=O)OCc2c1cc1n(c2=O)Cc2cc3ccccc3nc2-1` (centres undefined): the TGI in the test on HT29 colon stood at 2.64 µM; in the test with NCI-H226 lung, 0.0641 µM; in the test on NCI-H522 lung it was 0.285 µM; in the test on SNB-75 CNS, 0.0842 µM; in the test with HCC-2998 colon it was 1.57 µM; in the test on U251 CNS, 0.293 µM. Moreover, the TGI in the test on M14 melanoma worked out at 1.27 µM; in the test with OVCAR-3 ovarian it was 0.401 µM; in the test on IGROV1 ovarian it was 2.21 µM; with UO-31 renal it was 0.0856 µM.

The record behind these values is PubChem BioAssay (NCI).
